In ChEMBL document CHEMBL1201862, “PubChem BioAssay data set” (2004):
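Five concentrations, 48 hours, 96-well plates. Abbreviation: GI50, concentration required for 50% inhibition of growth.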 Calls of active or inactive are those of the source. No stated cut-off is given here; in the data, active = GI50 up to about 1.1 µM and inactive = higher.

Experiments:
Experiment in all cases: DTP human tumour cell line panel, 48 h
SNB-19 = system: SNB-19
HCT-15 = system: HCT-15
EKVX = system: EKVX
SK-OV-3 = system: SK-OV-3
HT-29 = system: HT-29
CAKI-1 = system: CAKI-1
UO-31 = system: UO-31
NCI-H226 = system: NCI-H226
SK-MEL-28 = system: SK-MEL-28
HCT-116 = system: HCT-116
786-0 = system: 786-0
UACC-62 = system: UACC-62
MOLT-4 = system: MOLT-4
CCRF-CEM = system: CCRF-CEM
RXF 393 = system: RXF 393
UACC-257 = system: UACC-257
LOX IMVI = system: LOX IMVI
Hs-578T = system: Hs-578T
T47D = system: T47D

Measured: GI50

Nc1ncnc2c(C3OC(CO)C(O)C3O)scc12 (configuration not stated)
active: EKVX 1.04 µM | SK-OV-3 < 0.001 µM | HT-29 0.00458 µM | CAKI-1 < 0.01 µM | UO-31 0.57 µM | NCI-H226 0.0386 µM | SK-MEL-28 0.873 µM | HCT-116 0.00885 µM | 786-0 0.217 µM | UACC-62 0.00321 µM | MOLT-4 0.0767 µM | CCRF-CEM 0.0597 µM | RXF 393 0.222 µM | UACC-257 0.0792 µM | LOX IMVI 0.0566 µM
0.00278 µM: HCT-15
inactive: SNB-19 1.38 µM

Cc1ccc(N2C(=O)/C(=C/c3ccc(N(CCC#N)CCC#N)cc3)N=C2COc2ccc(Cl)cc2Cl)cc1
inactive: SNB-19 > 100 µM | EKVX > 100 µM | SK-OV-3 > 100 µM | HT-29 > 100 µM | CAKI-1 > 100 µM | UO-31 > 100 µM | NCI-H226 > 100 µM | SK-MEL-28 > 100 µM | HCT-116 > 100 µM | 786-0 > 100 µM | UACC-62 > 100 µM | MOLT-4 > 100 µM | CCRF-CEM > 100 µM | RXF 393 > 100 µM | UACC-257 > 100 µM | LOX IMVI > 100 µM
> 100 µM: HCT-15

C/N=c1\ss/c(=N\C(=S)N(C)C)n1C1CCCCC1
inactive: SNB-19 > 31.6 µM | EKVX > 31.6 µM | SK-OV-3 24.2 µM | HT-29 > 31.6 µM | CAKI-1 > 31.6 µM | UO-31 > 31.6 µM | NCI-H226 > 31.6 µM | SK-MEL-28 > 31.6 µM | HCT-116 > 10 µM | 786-0 > 10 µM | UACC-62 > 31.6 µM | MOLT-4 > 31.6 µM | CCRF-CEM > 31.6 µM | RXF 393 > 31.6 µM | UACC-257 > 31.6 µM | LOX IMVI > 31.6 µM
> 31.6 µM: HCT-15

CC1CN=C(Nc2ccc(F)cc2F)S1 (configuration not stated)
inactive: SNB-19 > 100 µM | EKVX 75 µM | SK-OV-3 > 100 µM | CAKI-1 > 100 µM | UO-31 > 100 µM | Hs-578T > 100 µM | SK-MEL-28 > 100 µM | HCT-116 > 100 µM | 786-0 > 100 µM | MOLT-4 > 100 µM | CCRF-CEM > 100 µM | T47D 88.9 µM | UACC-257 > 100 µM | LOX IMVI > 100 µM
> 100 µM: HCT-15

NNC(=O)/C(NC(=O)c1ccccc1)=C(\N)c1ccc(Cl)cc1
inactive: SNB-19 > 100 µM | EKVX > 100 µM | SK-OV-3 > 100 µM | HT-29 > 100 µM | CAKI-1 > 100 µM | UO-31 > 100 µM | NCI-H226 > 100 µM | SK-MEL-28 > 100 µM | HCT-116 > 100 µM | 786-0 > 100 µM | UACC-62 > 100 µM | MOLT-4 28.3 µM | CCRF-CEM 38.2 µM | RXF 393 > 100 µM | UACC-257 > 100 µM | LOX IMVI > 100 µM
> 100 µM: HCT-15

c1ccc(C2=NOC3(c4ccccc4)SC4CCCCC4CN23)cc1 (configuration not stated)
26.7 µM: HCT-15
inactive: SNB-19 62.4 µM | EKVX 57.9 µM | SK-OV-3 77.4 µM | HT-29 28.2 µM | CAKI-1 19.5 µM | UO-31 27.5 µM | NCI-H226 36.6 µM | SK-MEL-28 89.1 µM | HCT-116 17.8 µM | 786-0 49.1 µM | UACC-62 25 µM | MOLT-4 12.7 µM | CCRF-CEM 6.38 µM | RXF 393 15.9 µM | UACC-257 38.5 µM | LOX IMVI 17 µM

CC(C)(c1ccc(OC#N)cc1)c1ccc(OC#N)cc1
inactive: SNB-19 > 100 µM | EKVX > 100 µM | SK-OV-3 > 100 µM | HT-29 > 100 µM | CAKI-1 > 100 µM | UO-31 > 100 µM | NCI-H226 > 100 µM | SK-MEL-28 > 100 µM | HCT-116 > 44.1 µM | 786-0 > 100 µM | UACC-62 > 100 µM | MOLT-4 > 100 µM | CCRF-CEM > 55.7 µM | RXF 393 > 87.9 µM | UACC-257 > 100 µM | LOX IMVI > 48.4 µM
20.3 µM: HCT-15
